The record followed here is patent US20090239941A1, “AMINO ACID DERIVATIVES” (PROXIMAGEN LTD., priority 2006, published 2009).

The subject of this assay is 6-OHDA-lesioned rats. Nature of the assay: Assessment of activity in 6-OHDA-lesioned rats (induction of rotational activity). The following applies: p.o., 63.4 μmole/kg, after benserazide 10 mg/kg; rotations over 4 hours; male Wistar rats. The class given is in vivo, rat.

Each structure is given as a SMILES string.

In the case of `CC(C)CC(=O)Oc1ccc(C[C@H](N)C(N)=O)cc1OC(=O)CC(C)C.Cl` [Example 5, (S)-2-[3,4-Bis-(3-methylbutyryloxy)-phenyl]-1-carbamoylethylammonium chloride], the “Duration of activity as % of that of L-Dopa” value worked out at 71%; the “Peak activity as % of that of L-Dopa” value is on record as 118%; the “Total activity (AUC activity, area under the locomotor-activity/time curve) as % of that of L-Dopa” value stood at 89%.
